According to patent publication US12262990B2, “Methods and materials for prolonged sweat stimulation” (priority 2016, dated 2025):

How the values were obtained:
[1] = biological target: acetylcholinesterase (AChE) (Homo sapiens, UniProt P22303); conditions: in words; cited from earlier work
skin of Persons A and B [2] = assay: Example 1: iontophoretic sweat stimulation on two persons, followed by skin impedance; type: in vivo, human; conditions: for duration of sweat stimulation from a single dose: about 40 mC/cm^2, estimated 0.142 mg, skin impedance
Description: (§1) Sweat was stimulated on two persons (A and B) using for each person a current of 0.5 mA and a charge of 75 mC applied over a total stimulated area of 1.9 cm^2 for a time of 150 seconds. Thus, the total charge density was 75 mC/1.9 cm^2 or about 40 mC/cm^2, and the estimated dose of carbachol delivered to the skin was 0.142 mg. The charge density and stimulant dose estimates may vary based on other ionic impurities that are also dosed (e.g., sodium dosed could decrease the amount of carbachol dosed). The effect of the dosed ionic impurities can be estimated or quantified in any given case by analytical chemistry techniques. […] The stimulated area was divided among two circular test sites that were approximately 1 inch apart. Skin impedance was measured using a Gamry Potentiostat using 2 kHz and 1 V peak to peak sinewave. The electrical resistance results are plotted in FIGS. 2A-2D and 3A-3D for Persons A and B, respectively (the data has been separated into four charts for each person for the sake of clarity). The baseline plots were measured at a control site (i.e., non-stimulated skin) positioned within 1 inch of the stimulation site.

skin of Persons A and B [3] = assay: Example 1: sweat rates by visual and gravimetric (filter paper) testing; type: in vivo, human; conditions: for Sweat Generation Rate: single dose about 40 mC/cm^2
Description: as §1
Sweat rates in nL/min/gland were also quantified using visual testing and gravimetric testing. Results from Person B are shown in FIG. 4 for a skin site of about 1 cm^2 of skin at 25 hours after stimulation. Approximately 130 active glands were counted per cm^2. Filter papers were weighed, placed on stimulated and control sites for 10 minutes under a plastic wrap to prevent evaporation, and immediately weighed again, and then sweat generation rates were calculated. […] The data for the stimulated sites 1 and 2 (paper measurements taken from each of the two stimulation areas) is shown in Table 2.

Nicotinic receptor = conditions: class symbols, key not given; cited from earlier work
skin of 8 subjects = assay: Example 2: iontophoretic sweat stimulation on 8 subjects, gravimetric sweat rate; type: in vivo, human
Excerpt: On 8 subjects, sweat was stimulated utilizing carbachol four times as detailed in Table 4 and one additional time utilizing pilocarpine. The stimulated area was divided among two circular test sites with areas of 0.88 cm^2 that were approximately 1 inch apart, which provides a total stimulation area of 1.76 cm^2. The carbachol doses in Table 4 are shown as percentages of the applied charge density compared to the charge density of pilocarpine applied by the commercial Wescor Nanoduct product, which is a charge density of 42 mC/cm^2. The pilocarpine was dosed over 150 seconds using a current of 0.28 mA/cm^2 and a charge density of 42 mC/cm^2, which delivered approximately 90.65 μg/cm^2.
Sweat rate was determined by a gravimetric test. Filter papers were weighed, placed on stimulated and control sites for 10 minutes under a specially designed acrylic holder that prevented any wicking of sweat from neighboring areas and prevented evaporation. The papers were immediately weighed again, and then sweat generation rates were calculated. The results from the gravimetric testing are plotted in FIGS. 4-6. Additionally, three subjects received three consecutive doses of 12.5% carbachol once the sweat rate had fallen below 1 nL/min/gland. The results from the repeated stimulation testing of subjects 1-3 are plotted in FIGS. 7A-7C, respectively.

Muscarinic receptor = conditions: class symbols, key not given; cited from earlier work
skin = conditions: cited from earlier work

Chain of acetylcholinesterase (AChE) (P22303 32-614, species assumed): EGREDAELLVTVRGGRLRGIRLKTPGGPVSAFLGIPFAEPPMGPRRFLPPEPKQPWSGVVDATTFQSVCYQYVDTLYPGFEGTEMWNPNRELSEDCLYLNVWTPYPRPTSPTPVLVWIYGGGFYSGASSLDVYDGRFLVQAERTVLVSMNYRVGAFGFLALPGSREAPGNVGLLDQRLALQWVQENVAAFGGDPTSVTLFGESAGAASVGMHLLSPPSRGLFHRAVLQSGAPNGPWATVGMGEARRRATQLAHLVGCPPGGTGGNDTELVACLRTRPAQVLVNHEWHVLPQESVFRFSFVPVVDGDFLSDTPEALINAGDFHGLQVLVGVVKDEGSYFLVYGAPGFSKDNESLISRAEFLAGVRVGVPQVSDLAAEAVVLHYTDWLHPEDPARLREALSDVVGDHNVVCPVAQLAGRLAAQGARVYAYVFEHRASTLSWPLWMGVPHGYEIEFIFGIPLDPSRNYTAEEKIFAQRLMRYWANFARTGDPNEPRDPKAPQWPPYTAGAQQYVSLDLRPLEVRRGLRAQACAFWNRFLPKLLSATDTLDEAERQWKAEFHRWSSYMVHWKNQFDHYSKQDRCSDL

In the case of `CC(=O)OCC[N+](C)(C)C` [Acetylcholine], the “metabolism by acetylcholinesterase (AChE)” value (“metabolism” for short) [1] is given as “rapidly metabolized”.
In the case of `C[N+](C)(C)CCOC(N)=O` [Carbachol], the “metabolism” value [1] is listed as “metabolized much more slowly”, the “duration of sweat stimulation from a single dose” value (skin of Persons A and B [2]; Person A) is listed as “at least 31 hours” and the “duration of sweat stimulation from a single dose” value (skin of Persons A and B [2]; both Persons A and B) is listed as “at least 24 hours”. For the same molecule, the “duration of sweat generation” value (skin of Persons A and B [2]; lower charge densities than about 40 mC/cm^2) was 24 h, the sweat rate (skin of Persons A and B [3]; 40 mC/cm^2 charge density, for 24 hours) was “greater than 1 nL/min/gland” and the active glands counted (skin of Persons A and B [3]; Person B, skin site of about 1 cm^2, 25 hours after stimulation) was “Approximately 130 per cm^2”. For the same molecule, the “Sweat Generation Rate” value (skin of Persons A and B [3]; Subject A, Site 1, 4 hours after stimulation) was 6.4 nl/min/gland, the “Sweat Generation Rate” value (skin of Persons A and B [3]; Subject A, Site 1, 23 hours after stimulation) was 3.3 nl/min/gland and the “Sweat Generation Rate” value (skin of Persons A and B [3]; Subject A, Site 2, 4 hours after stimulation) was 4.6 nl/min/gland. For the same molecule, the “Sweat Generation Rate” value (skin of Persons A and B [3]; Subject A, Site 2, 23 hours after stimulation) was 3.1 nl/min/gland, the “Sweat Generation Rate” value (skin of Persons A and B [3]; Subject B, Site 1, 5 hours after stimulation) was 8.3 nl/min/gland and the “Sweat Generation Rate” value (skin of Persons A and B [3]; Subject B, Site 1, 23 hours after stimulation) was 0.3 nl/min/gland. The “Sweat Generation Rate” value (skin of Persons A and B [3]; Subject B, Site 2, 5 hours after stimulation) was 9.4 nl/min/gland, the “Sweat Generation Rate” value (skin of Persons A and B [3]; Subject B, Site 2, 23 hours after stimulation) was 2.7 nl/min/gland and the stimulated sweat amount (skin of Persons A and B [3]; charge density of less than 40 mC/cm^2) was “greater than 1,400 nL/gland/dose”. The “average sweat rates observed” value (skin of Persons A and B [3]; for 24 hours, half the dose) was “greater than 2 nL/min/gland”, the “Receptor Activity Nicotinic” value (Nicotinic receptor) was “strong” and the “duration of stimulated sweating response of greater than 0.1 nL/min/gland” value (skin of 8 subjects; 5 out of 8 subjects, single 12.5% dose (5.25 mC/cm^2)) was “greater than 8 hours”. For the same molecule, the “sustained sweating following a single iontophoretic dose, compared with pilocarpine” value (skin of 8 subjects; 8 subjects, in words) was “much longer than commonly observed for pilocarpine”, the “duration of sweating responses” value (skin of 8 subjects; four of the 8 subjects) was “greater than 24 hours” and the “duration of sweating at greater than 1 nL/min/gland” value (skin of 8 subjects; half of the subjects, single 100% dose (42 mC/cm^2)) was “greater than 24 hours”. The “duration of sweating at greater than 1 nL/min/gland” value (skin of 8 subjects; subjects e, g, h, 100% dosage (42 mC/cm^2)) was “greater than 7 hours”, the “duration of sweating responses” value (skin of 8 subjects; three of the 8 subjects) was “greater than 48 hours” and the “Receptor Activity Muscarinic” value (Muscarinic receptor) was “strong”.
For `CC(=O)OC(C)C[N+](C)(C)C` (stereo not shown) [Methacholine], the “metabolism” value [1] is listed as “metabolized much more slowly”.
In the case of `CC[C@@H]1C(=O)OC[C@@H]1Cc1cncn1C` [Pilocarpine], the average sweat rate (skin; charge density of 40 mC/cm^2, for 90 minutes) is listed as 1-4 nL/min/gland and the “duration of sweat response” value (skin; charge density of 40 mC/cm^2, on average) is listed as 90 min.
